The data set in a line: Evaluation of pharmacokinetic parameters for Nisoldipine following oral administration of 17 to 51 mg of Nisoldipine extended release tablets. Type of data set: ADME, organism-based. The conditions noted are these: human, in vivo, dose 17-51 mg, dosed compound id 7, dosed compound name NISOLDIPINE, tissue Plasma.

Structures are written as SMILES.

`COC(=O)C1=C(C)NC(C)=C(C(=O)OCC(C)C)C1c1ccccc1[N+](=O)[O-]` (stereo not drawn) [NISOLDIPINE]: the Tmax came to 9.2 h and the bioavailability amounted to 5%. Besides, for the setting “read-out: t1/2-elimination (converted)”, the half-life was 13.7 h.

As usually defined, the Tmax is the time from dosing to the highest level. By bioavailability is commonly meant the share of a dose that reaches the circulation, judged against a reference dose that is usually intravenous. A lower bioavailability goes with poor availability.
